Measured values from patent US9029544B2, “Tricyclic pyridine derivatives, medicaments containing such compounds, their use and process for their preparation” (Boehringer Ingelheim International GmbH, priority 2010, dated 2015).

Target: T1, Recombinant human CETP (Homo sapiens, UniProt P11597)
T1 construct: made in house; host or cells: CHO cells (secreted into conditioned medium)
T1 sequence (P11597 18-493): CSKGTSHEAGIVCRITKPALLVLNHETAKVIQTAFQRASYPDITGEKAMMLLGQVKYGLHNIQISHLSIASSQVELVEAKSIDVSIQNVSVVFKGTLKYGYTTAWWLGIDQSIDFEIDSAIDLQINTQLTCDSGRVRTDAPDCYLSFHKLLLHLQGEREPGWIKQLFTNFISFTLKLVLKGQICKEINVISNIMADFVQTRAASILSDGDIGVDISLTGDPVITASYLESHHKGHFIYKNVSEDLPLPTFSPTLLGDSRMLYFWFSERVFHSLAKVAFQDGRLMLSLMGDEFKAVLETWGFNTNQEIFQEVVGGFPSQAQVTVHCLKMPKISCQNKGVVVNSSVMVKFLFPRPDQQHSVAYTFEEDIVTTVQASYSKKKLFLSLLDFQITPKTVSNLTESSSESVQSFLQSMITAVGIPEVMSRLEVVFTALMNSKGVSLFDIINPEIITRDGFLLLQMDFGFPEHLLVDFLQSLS
Test: CETP in vitro assay (fluorometric assay, Roar Biomedical; cholesterol ester transfer from HDL to LDL)
Format: biochemical
Conditions: recombinant human CETP from CHO cells; 3 hours at 37° C.; fluorescence 485/535 nm; compound concentrations between 1 nM and 30 μM; read-out: IC50 values for inhibition of CETP
Procedure, shortened: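 Fluorometric transfer assay using donor and acceptor particles with recombinant human CETP partially purified from conditioned medium of CETP-expressing CHO cells. Compound in DMSO incubated 3 hours at 37° C; fluorescence Ex 485/Em 535 nm. IC50 from dose-effect curves over 1 nM to 30 μM.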

| SMILES | IC50 |
| --- | --- |
| CC(C)c1nc2c(c3c1[C@@H](c1ccc(C(F)(F)F)cn1)OC31CCOCC1)[C@@H](O)CC1(CCC1)[C@H]2O [5(8), (3S,6R,9S)-4-isopropyl-7,7-(propan-1,3-diyl)-3-(5-(trifluoromethyl)pyridin-2-yl)-2′,3′,5′,6,6′,7,8,9-octahydro-3H-spiro[furo[3,4-c]quinoline-1,4′-pyran]-6,9-diol] | 42 nM |
| O[C@H]1CC2(CCC2)[C@@H](O)c2nc(C3CCOCC3)c3c(c21)C1(CCOCC1)O[C@@H]3c1ccc(C(F)(F)F)cn1 [6(1), (3S,6R,9S)-7,7-(propan-1,3-diyl)-4-(tetrahydro-2H-pyran-4-yl)-3-(5-(trifluoromethyl)pyridin-2-yl)-2′,3′,5′,6,6′,7,8,9-octahydro-3H-spiro[furo[3,4-c]quinoline-1,4′-pyran]-6,9-diol] | 1220 nM |
| CC(C)c1nc2c(c3c1[C@@H](c1ccc(C(F)(F)F)nc1)OC31CCOCC1)[C@@H](O)CC1(CCC1)[C@H]2O [Example 5, (3R,6R,9S)-4-isopropyl-7,7-(propan-1,3-diyl)-3-(6-(trifluoromethyl)pyridin-3-yl)-2′,3′,5′,6,6′,7,8,9-octahydro-3H-spiro[furo[3,4-c]quinoline-1,4′-pyran]-6,9-diol] | 13 nM |

The remaining molecules from weak to strong by IC50, led by results:

| IC50 | SMILES |
| --- | --- |
| 1540 nM | CC1(C)C[C@H](O)c2c(nc(C3CCOCC3)c3c2C2(CCOCC2)O[C@@H]3c2ccc(C(F)(F)F)nc2)[C@@H]1O [6(2), (3R,6R,9S)-7,7-dimethyl-4-(tetrahydro-2H-pyran-4-yl)-3-(6-(trifluoromethyl)pyridin-3-yl)-2′,3′,5′,6,6′,7,8,9-octahydro-3H-spiro[furo[3,4-c]quinoline-1,4′-pyran]-6,9-diol] |
| 410 nM | CC(C)c1nc2c(c3c1[C@@H](c1ccc(C(F)(F)F)cc1F)OC31CCOCC1)[C@@H](O)CC(C)(C)[C@@H]2O [Example 6, (3S,6S,9S)-3-(2-fluoro-4-(trifluoromethyl)phenyl)-4-isopropyl-7,7-dimethyl-2′,3′,5′,6,6′,7,8,9-octahydro-3H-spiro[furo[3,4-c]quinoline-1,4′-pyran]-6,9-diol] |
